Read-outs that look alike come from different tables or passages of the source.
Test system: HCV replicon
Assay: HCV replicon system in Huh7 cells (Q-RT-PCR of replicon RNA)
Settings: Hepatitis C virus, Huh-7, 96 h
[1] = read-out: average EC90 value, corrected for cellular toxicity (ΔΔCt vs rDNA/rRNA)

Protocol: Antiviral testing of candidate compounds for Flaviviridae: The HCV replicon system in Huh7 cells.
Add the test compound immediate after seeding the cells and incubate for a period of 3 to 7 days at 37° C. in an incubator. Media is then removed, and the cells are prepared for total nucleic acid extraction (including replicon RNA and host RNA). Replicon RNA can then be amplified in a Q-RT-PCR protocol, and quantified accordingly. […] In such experiments, one way to express the antiviral effectiveness of a compound is to subtract the threshold RT-PCR cycle of the test compound with the average threshold RT-PCR cycle of the negative control. This value is called DeltaCt (ΔCt or DCt). […] As a positive control, recombinant interferon alfa-2a (Roferon-A, Hoffmann-Roche, New Jersey, USA) is taken alongside as positive control.
In a typical setting, a compound might reduce both the host RNA polymerase activity and the replicon-encoded polymerase activity. Therefore, quantification of rRNA (or any other host RNA polymerase I product) or beta-actin mRNA (or any other host RNA polymerase II) and comparison with RNA levels of the no-drug control is a relative measurement of the effect of the test compound on host RNA polymerases.
With the availability of both the HCV ΔCt data and the rRNA ΔCt, a specificity parameter can be introduced. This parameter is obtained by subtracting both ΔCt values from each other.
In another typical setting, a compound might reduce the host RNA polymerase activity, but not the host DNA polymerase activity. Therefore, quantification of rDNA or beta-actin DNA (or any other host DNA fragment) and comparison with DNA levels of the no-drug control is a relative measurement of the inhibitory effect of the test compound on cellular DNA polymerases
With the availability of both the HCV ΔCt data and the rDNA ΔCt, a specificity parameter can be introduced. This parameter is obtained by subtracting both ΔCt values from each other. […] However, compounds with a ΔΔCt value of less than 2, but with limited molecular cytotoxicty (rDNA ΔCT between 0 and 2) may be desired. […]

`Nc1ccn([C@@H]2O[C@H](CO)[C@@H](O)[C@H]2F)c(=O)n1` [2′-Deoxy-2′F-Cytidine, 2′-deoxy-2′-fluorocytidine] gave an EC90 (read-out: EC90 (1-log reduction of replicon HCV RNA, 3.3 Ct) (converted)) of roughly 5 µM and an EC90 [1] of roughly 10 µM.

`Nc1ccn([C@@H]2O[C@H](CO)[C@@H](O)C2(F)F)c(=O)n1` [Gemcitabine, β-D-2′,2′-difuoro-2′ deoxycytidine, reference compound] was tested, and the EC90 [1] was roughly 0.3 µM.

From US20040002476A1, “Modified fluorinated nucleoside analogues” (priority 2002, published 2004)
